Assay results from ChEMBL document CHEMBL4382233, “Discovery of novel arylethenesulfonyl fluorides as potential candidates against methicillin-resistant of Staphylococcus aureus (MRSA) for overcoming multidrug resistance of bacterial infections” (2019).
≈ marks a conversion by molar mass, not a printed value. Calls of active or inactive are those of the source. The rule behind the calls is not given here.

What was measured:
Staphylococcus aureus [1] = assay: Antibiofilm activity against methicillin-resistant Staphylococcus aureus planktonic biofilm assessed as optical density at 492 nm at MIC after 24 hrs by crystal violet staining-based UV-visible spectrophotometric analysis; assay type: functional
[2] = test system: Staphylococcus epidermidis; assay: Antibacterial activity against methicillin-resistant Staphylococcus epidermidis after overnight incubation by micro broth dilution analysis; assay type: functional
[3] = test system: Staphylococcus epidermidis; assay: Antibacterial activity against methicillin-resistant Staphylococcus epidermidis assessed as zone of inhibition at 800 ng/mL after 24 hrs by agar disc diffusion method; assay type: functional; settings: read-out: IZ
[4] = test system: Staphylococcus haemolyticus; assay: Antibacterial activity against methicillin-resistant Staphylococcus haemolyticus assessed as zone of inhibition at 200 ng/mL after 24 hrs by agar disc diffusion method; assay type: functional; settings: read-out: IZ
[5] = test system: Staphylococcus haemolyticus; assay: Antibacterial activity against methicillin-resistant Staphylococcus haemolyticus after overnight incubation by micro broth dilution analysis; assay type: functional
[6] = test system: Staphylococcus haemolyticus; assay: Antibacterial activity against methicillin-resistant Staphylococcus haemolyticus assessed as zone of inhibition at 800 ng/mL after 24 hrs by agar disc diffusion method; assay type: functional; settings: read-out: IZ
Staphylococcus aureus [7] = assay: Antibacterial activity against methicillin-resistant Staphylococcus aureus after overnight incubation by micro broth dilution analysis; assay type: functional
[8] = test system: Staphylococcus epidermidis; assay: Antibacterial activity against methicillin-resistant Staphylococcus epidermidis assessed as zone of inhibition at 200 ng/mL after 24 hrs by agar disc diffusion method; assay type: functional; settings: read-out: IZ
Staphylococcus aureus [9] = assay: Antibacterial activity against methicillin-resistant Staphylococcus aureus assessed as zone of inhibition at 800 ng/mL after 24 hrs by agar disc diffusion method; assay type: functional; settings: read-out: IZ
Staphylococcus aureus [10] = assay: Antibacterial activity against methicillin-resistant Staphylococcus aureus assessed as zone of inhibition at 200 ng/mL after 24 hrs by agar disc diffusion method; assay type: functional; settings: read-out: IZ
Staphylococcus aureus [11] = assay: Antibacterial activity against methicillin-resistant Staphylococcus aureus assessed as zone of inhibition at 50 ug/mL after 24 hrs by agar disc diffusion method; assay type: functional; settings: read-out: IZ
Staphylococcus aureus [12] = assay: Induction of cellular content release in methicillin-resistant Staphylococcus aureus assessed as DNA content by measuring optical density at 260 nm at MIC after 240 mins by UV-visible spectrophotometric analysis; assay type: functional
[13] = test system: Staphylococcus epidermidis; assay: Antibacterial activity against methicillin-resistant Staphylococcus epidermidis assessed as zone of inhibition at 20 ug/mL after 24 hrs by agar disc diffusion method; assay type: functional; settings: read-out: IZ
[14] = test system: Staphylococcus haemolyticus; assay: Antibacterial activity against methicillin-resistant Staphylococcus haemolyticus assessed as zone of inhibition at 400 ng/mL after 24 hrs by agar disc diffusion method; assay type: functional; settings: read-out: IZ
Staphylococcus aureus [15] = assay: Antibacterial activity against methicillin-resistant Staphylococcus aureus assessed as zone of inhibition at 400 ng/mL after 24 hrs by agar disc diffusion method; assay type: functional; settings: read-out: IZ
[16] = test system: Staphylococcus epidermidis; assay: Antibacterial activity against methicillin-resistant Staphylococcus epidermidis assessed as zone of inhibition at 400 ng/mL after 24 hrs by agar disc diffusion method; assay type: functional; settings: read-out: IZ
[17] = test system: Staphylococcus haemolyticus; assay: Antibacterial activity against methicillin-resistant Staphylococcus haemolyticus assessed as zone of inhibition at 50 ug/mL after 24 hrs by agar disc diffusion method; assay type: functional; settings: read-out: IZ
Staphylococcus aureus [18] = assay: Antibiofilm activity against methicillin-resistant Staphylococcus aureus at 2 times MIC after 24 hrs by crystal violet staining-based UV-visible spectrophotometric analysis; assay type: functional, organism-based

SMILES | OD (Staphylococcus aureus [1]) | MIC99 [2] | zone of inhibition at 0.8 µg/mL [3] | zone of inhibition at 0.2 µg/mL [4] | MIC99 [5] | zone of inhibition at 0.8 µg/mL [6] | MIC99 (Staphylococcus aureus [7]) | zone of inhibition at 0.2 µg/mL [8] | zone of inhibition at 0.8 µg/mL (Staphylococcus aureus [9]) | zone of inhibition at 0.2 µg/mL (Staphylococcus aureus [10]) | zone of inhibition at 50 µg/mL (Staphylococcus aureus [11]) | OD (Staphylococcus aureus [12]) | zone of inhibition at 20 µg/mL [13] | zone of inhibition at 0.4 µg/mL [14] | zone of inhibition at 0.4 µg/mL (Staphylococcus aureus [15]) | zone of inhibition at 0.4 µg/mL [16] | zone of inhibition at 50 µg/mL [17] | Activity (Staphylococcus aureus [18])
O=S(=O)(F)/C=C/c1ccccc1Br | 0.725 | 0.809 mg/L (≈ 3.05 µM) | 14.2 mm | 1.1 mm | 25.3 mg/L (≈ 95.5 µM) | 3.3 mm | 0.839 mg/L (≈ 3.16 µM) | 10.1 mm | 7.2 mm | 3.5 mm | 20.1 mm | 1.58 | 14.1 mm | 2.2 mm | 4.4 mm | 11.5 mm | 11.2 mm | 
COc1ccccc1/C=C/S(=O)(=O)F |  | 0.829 mg/L (≈ 3.83 µM) | 8.4 mm | 3.2 mm | 0.837 mg/L (≈ 3.87 µM) | 7.1 mm | 69.1 mg/L (≈ 319 µM) | 5.1 mm |  |  | 5.2 mm |  | 7.2 mm | 5.2 mm |  | 7.2 mm | 12.2 mm | Active
Cc1cccc(/C=C/S(=O)(=O)F)c1 |  | 57.2 mg/L (≈ 286 µM) |  | 6.1 mm | 0.812 mg/L (≈ 4.06 µM) | 10.3 mm | 0.844 mg/L (≈ 4.22 µM) |  | 6.2 mm | 4.3 mm | 10.1 mm |  | 3.5 mm | 8.2 mm | 5.2 mm |  | 12.2 mm | 
O=[N+]([O-])c1ccccc1/C=C/C=C/S(=O)(=O)F |  | 44 mg/L (≈ 171 µM) |  | 3.2 mm | 16.2 mg/L (≈ 62.8 µM) | 5.2 mm | 47 mg/L (≈ 183 µM) |  |  |  | 5.5 mm |  | 6.2 mm | 4.2 mm |  |  | 6.5 mm | 
O=Cc1cccc(/C=C/S(=O)(=O)F)c1 |  | 41.1 mg/L (≈ 192 µM) |  | 2.2 mm | 0.828 mg/L (≈ 3.87 µM) | 6.1 mm | 17.2 mg/L (≈ 80.2 µM) |  | 4.2 mm | 3.1 mm | 10.3 mm |  | 6.5 mm | 5.1 mm | 3.5 mm |  | 8.2 mm | 
Cc1ccccc1/C=C/S(=O)(=O)F |  | 17.2 mg/L (≈ 85.8 µM) | 4.5 mm |  | 54.1 mg/L (≈ 270 µM) |  | 0.849 mg/L (≈ 4.24 µM) | 2.2 mm | 6.4 mm | 4.2 mm | 15.4 mm |  | 15.3 mm |  | 5.1 mm | 3.4 mm | 5.4 mm | 
CCOC(=O)/C=C/C=C/S(=O)(=O)F |  | 47 mg/L (≈ 226 µM) | 3.1 mm | 0 mm | 56.1 mg/L (≈ 269 µM) | 5.1 mm | 40.3 mg/L (≈ 193 µM) | 3.3 mm |  |  | 4.1 mm |  | 8.2 mm | 3.2 mm |  | 4.1 mm | 7.5 mm | 
O=S(=O)(F)/C=C/c1ccccc1 |  | 15.2 mg/L (≈ 81.4 µM) | 5.5 mm | 0 mm | 20.1 mg/L (≈ 108 µM) | 3.2 mm | 18.2 mg/L (≈ 97.5 µM) | 0.1 mm | 4.5 mm | 3.5 mm | 8.2 mm |  | 11.2 mm | 1.2 mm | 4.2 mm | 4.2 mm | 7.2 mm | 
O=S(=O)(F)/C=C/c1cccc(Br)c1 |  | 58.2 mg/L (≈ 219 µM) |  | 32 mm | 16.1 mg/L (≈ 60.8 µM) | 52 mm | 0.813 mg/L (≈ 3.07 µM) |  | 12 mm | 5.1 mm | 17.1 mm |  | 4.5 mm | 42 mm | 10.1 mm |  | 8.5 mm | 
O=S(=O)(F)/C=C/c1cc(C(F)(F)F)cc(C(F)(F)F)c1 |  | 60.2 mg/L (≈ 187 µM) |  | 0 mm | 18.1 mg/L (≈ 56.3 µM) | 4.2 mm | 0.814 mg/L (≈ 2.53 µM) |  | 10.3 mm | 6.2 mm | 14.4 mm |  | 6.5 mm | 3.1 mm | 7.1 mm |  | 7.1 mm | 
CSc1ccc(/C=C/S(=O)(=O)F)cc1 |  | 0.835 mg/L (≈ 3.59 µM) |  | 3.1 mm | 0.838 mg/L (≈ 3.61 µM) | 7.4 mm | 41.1 mg/L (≈ 177 µM) |  |  |  | 6.2 mm |  | 6.4 mm | 5.2 mm |  |  | 8.2 mm | 
O=S(=O)(F)/C=C/c1cccc(I)c1 |  | 0.825 mg/L (≈ 2.64 µM) | 8.1 mm | 0 mm | 23.1 mg/L (≈ 74.2 µM) | 3.2 mm | 46 mg/L (≈ 148 µM) | 6.1 mm |  |  | 12.3 mm |  | 8.2 mm | 0 mm |  | 7.1 mm | 8.2 mm | 
CC(C)c1cccc(/C=C/S(=O)(=O)F)c1 |  | 0.81 mg/L (≈ 3.55 µM) | 15.1 mm |  | 43 mg/L (≈ 189 µM) |  | 16.1 mg/L (≈ 70.3 µM) | 9.2 mm | 4.2 mm | 3.1 mm | 20.1 mm |  | 18 mm |  | 3.5 mm | 12.2 mm | 4.2 mm | 
CC(=O)c1ccc(/C=C/S(=O)(=O)F)cc1 |  | 54.2 mg/L (≈ 237 µM) |  | 3.3 mm | 0.84 mg/L (≈ 3.68 µM) | 6.1 mm | 0.822 mg/L (≈ 3.6 µM) |  | 10.2 mm | 6.2 mm | 14.1 mm |  | 6.5 mm | 5.2 mm | 8.2 mm |  | 7.2 mm | 
